ChEMBL document CHEMBL3885881, “DrugMatrix”

Organism: Rattus norvegicus
Test: DrugMatrix - Regimen: Daily Repeat
Format: toxicity, organism-based, Sprague-Dawley
Design: regimen Daily Repeat, gender Male, age 6-8 weeks
Conditions: in vivo, po, route oral GAVAGE, vehicle 100 % WATER; for ABSOLUTE BASOPHIL / ABSOLUTE EOSINOPHIL / ABSOLUTE LYMPHOCYTE / ABSOLUTE MONOCYTE / ABSOLUTE SEGMENTED NEUTROPHIL / BASOPHIL / EOSINOPHIL / ERYTHROCYTE COUNT / HEMATOCRIT / HEMOGLOBIN / LEUKOCYTE COUNT / LYMPHOCYTE / MEAN CORPUSCULAR HEMOGLOBIN / MEAN CORPUSCULAR HEMOGLOBIN CONCENTRATION / MEAN CORPUSCULAR VOLUME / MONOCYTE / NEUTROPHIL / NUCLEATED RED BLOOD CELLS / PLATELET COUNT: tissue Blood; for ALANINE AMINOTRANSFERASE / ALBUMIN / ALKALINE PHOSPHATASE / ASPARTATE AMINOTRANSFERASE / BLOOD UREA NITROGEN / CARBON DIOXIDE / CHLORIDE / CHOLESTEROL / CREATINE PHOSPHOKINASE / CREATININE / GLUCOSE / LACTATE DEHYDROGENASE / LIPASE / PHOSPHORUS / POTASSIUM / SODIUM / TOTAL BILIRUBIN / TOTAL PROTEIN / URIC ACID: tissue Plasma
[1] = 0 mg/kg, 72 h, dose level Control, time 3 day
[2] = 0 mg/kg, 120 h, dose level Control, time 5 day
[3] = 175 mg/kg, 72 h, dose level High, time 3 day

## O=c1[nH]c(=O)n(C2CCCO2)cc1F (centres undefined) [TEGAFUR]
[1]
  ABSOLUTE BASOPHIL: 0 CELLS/uL
  ABSOLUTE EOSINOPHIL: 168.33 CELLS/uL
  ABSOLUTE LYMPHOCYTE: 13654.17 CELLS/uL
  ABSOLUTE MONOCYTE: 121 CELLS/uL
  ABSOLUTE SEGMENTED NEUTROPHIL: 1223.17 CELLS/uL
  BASOPHIL: 0%
  EOSINOPHIL: 1.17%
  ERYTHROCYTE COUNT: 5.7 x10E6/uL
  HEMATOCRIT: 35.33%
  HEMOGLOBIN: 13.97 G/DL
  LEUKOCYTE COUNT: 15.17 x10E3/uL
  LYMPHOCYTE: 89.83%
  MEAN CORPUSCULAR HEMOGLOBIN: 24.53 pg
  MEAN CORPUSCULAR HEMOGLOBIN CONCENTRATION: 39.53 G/DL
  MEAN CORPUSCULAR VOLUME: 62.05 fL
  MONOCYTE: 0.83%
  NEUTROPHIL: 8.17%
  NUCLEATED RED BLOOD CELLS: 0 /100WBC
  PLATELET COUNT: 1312.17 x10E3/uL
  ALANINE AMINOTRANSFERASE: 50.83 u/L
  ALBUMIN: 4.18 G/DL
  ALKALINE PHOSPHATASE: 334.17 u/L
  ASPARTATE AMINOTRANSFERASE: 82.17 u/L
  BLOOD UREA NITROGEN: 15.5 mg/dL
  CARBON DIOXIDE: 31.33 mmol/L
  CHLORIDE: 99.83 MEQ/L
  CHOLESTEROL: 76 mg/dL
  CREATINE PHOSPHOKINASE: 272.17 u/L
  CREATININE: 0.17 mg/dL
  GLUCOSE: 143 mg/dL
  LACTATE DEHYDROGENASE: 157.5 u/L
  LIPASE: 9.33 u/L
  PHOSPHORUS: 12.18 mg/dL
  POTASSIUM: 6.78 MEQ/L
  SODIUM: 143.9 MEQ/L
  TOTAL BILIRUBIN: 0.22 mg/dL
  TOTAL PROTEIN: 5.85 G/DL
  URIC ACID: 1.7 mg/dL
[2]
  ABSOLUTE BASOPHIL: 0 CELLS/uL
  ABSOLUTE EOSINOPHIL: 0 CELLS/uL
  ABSOLUTE LYMPHOCYTE: 13539.33 CELLS/uL
  ABSOLUTE MONOCYTE: 177.67 CELLS/uL
  ABSOLUTE SEGMENTED NEUTROPHIL: 2116.33 CELLS/uL
  BASOPHIL: 0%
  EOSINOPHIL: 0%
  ERYTHROCYTE COUNT: 5.78 x10E6/uL
  HEMATOCRIT: 36.13%
  HEMOGLOBIN: 14.1 G/DL
  LEUKOCYTE COUNT: 15.83 x10E3/uL
  LYMPHOCYTE: 85.83%
  MEAN CORPUSCULAR HEMOGLOBIN: 24.42 pg
  MEAN CORPUSCULAR HEMOGLOBIN CONCENTRATION: 39 G/DL
  MEAN CORPUSCULAR VOLUME: 62.55 fL
  MONOCYTE: 0.83%
  NEUTROPHIL: 13.33%
  NUCLEATED RED BLOOD CELLS: 0.17 /100WBC
  PLATELET COUNT: 1281.17 x10E3/uL
  ALANINE AMINOTRANSFERASE: 55.5 u/L
  ALBUMIN: 4.22 G/DL
  ALKALINE PHOSPHATASE: 345 u/L
  ASPARTATE AMINOTRANSFERASE: 92.5 u/L
  BLOOD UREA NITROGEN: 16.5 mg/dL
  CARBON DIOXIDE: 26.5 mmol/L
  CHLORIDE: 103.5 MEQ/L
  CHOLESTEROL: 78.5 mg/dL
  CREATINE PHOSPHOKINASE: 381.5 u/L
  CREATININE: 0.21 mg/dL
  GLUCOSE: 161.83 mg/dL
  LACTATE DEHYDROGENASE: 487.5 u/L
  LIPASE: 10.17 u/L
  PHOSPHORUS: 11.83 mg/dL
  POTASSIUM: 6.4 MEQ/L
  SODIUM: 146.95 MEQ/L
  TOTAL BILIRUBIN: 0.22 mg/dL
  TOTAL PROTEIN: 6.22 G/DL
  URIC ACID: 1.83 mg/dL
[3]
  ABSOLUTE BASOPHIL: 0 CELLS/uL
  ABSOLUTE EOSINOPHIL: 0 CELLS/uL
  ABSOLUTE LYMPHOCYTE: 11530.33 CELLS/uL
  ABSOLUTE MONOCYTE: 235 CELLS/uL
  ABSOLUTE SEGMENTED NEUTROPHIL: 434.67 CELLS/uL
  BASOPHIL: 0%
  EOSINOPHIL: 0%
  ERYTHROCYTE COUNT: 5.62 x10E6/uL
  HEMATOCRIT: 35%
  HEMOGLOBIN: 13.93 G/DL
  LEUKOCYTE COUNT: 12.2 x10E3/uL
  LYMPHOCYTE: 94.33%
  MEAN CORPUSCULAR HEMOGLOBIN: 24.87 pg
  MEAN CORPUSCULAR HEMOGLOBIN CONCENTRATION: 39.83 G/DL
  MEAN CORPUSCULAR VOLUME: 62.43 fL
  MONOCYTE: 2%
  NEUTROPHIL: 3.67%
  NUCLEATED RED BLOOD CELLS: 0 /100WBC
  PLATELET COUNT: 1245 x10E3/uL
  ALANINE AMINOTRANSFERASE: 377 u/L
  ALBUMIN: 4.23 G/DL
  ALKALINE PHOSPHATASE: 316.67 u/L
  ASPARTATE AMINOTRANSFERASE: 623.67 u/L
  BLOOD UREA NITROGEN: 18 mg/dL
  CARBON DIOXIDE: 25.33 mmol/L
  CHLORIDE: 98 MEQ/L
  CHOLESTEROL: 59.33 mg/dL
  CREATINE PHOSPHOKINASE: 3619.67 u/L
  CREATININE: 0.24 mg/dL
  GLUCOSE: 187.67 mg/dL
  LACTATE DEHYDROGENASE: 3501.33 u/L
  LIPASE: 13.33 u/L
  PHOSPHORUS: 13.57 mg/dL
  POTASSIUM: 9.03 MEQ/L
  SODIUM: 141.23 MEQ/L
  TOTAL BILIRUBIN: 0.23 mg/dL
  TOTAL PROTEIN: 5.9 G/DL
  URIC ACID: 2.9 mg/dL
